{"source": "patent US9751858B2", "about": "“3-heteroaroylamino-propionic acid derivatives and their use as pharmaceuticals” (SANOFI, priority 2011, dated 2017)", "data": [{"molecular_target": "T1, Recombinant human cathepsin A (Homo sapiens, UniProt P10619)", "T1 construct": "Recombinant human cathepsin A (residues 29-480, with a C-terminal 10-His tag); 10-His (C); purchased R&D Systems 1049-SE", "T1 sequence (P10619 29-326 limits assumed)": "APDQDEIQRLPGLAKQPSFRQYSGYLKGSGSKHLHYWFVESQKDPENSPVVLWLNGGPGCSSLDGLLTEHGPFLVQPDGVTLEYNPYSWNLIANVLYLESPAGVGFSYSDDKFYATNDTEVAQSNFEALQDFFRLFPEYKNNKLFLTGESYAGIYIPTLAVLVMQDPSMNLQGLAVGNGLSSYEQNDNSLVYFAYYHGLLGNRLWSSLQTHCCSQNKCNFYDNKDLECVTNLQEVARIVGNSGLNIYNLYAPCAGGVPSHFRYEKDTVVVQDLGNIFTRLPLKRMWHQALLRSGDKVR", "T1 sequence (P10619 327-480 limits assumed)": "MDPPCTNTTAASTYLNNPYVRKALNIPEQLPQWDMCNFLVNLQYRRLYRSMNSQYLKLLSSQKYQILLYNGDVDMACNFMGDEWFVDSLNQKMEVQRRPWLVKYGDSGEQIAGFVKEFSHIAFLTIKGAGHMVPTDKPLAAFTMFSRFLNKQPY", "test": "Cathepsin A inhibitory activity", "type": "biochemical", "conditions": "activated recombinant human cathepsin A 833 ng/ml, Bodipy FL-labeled bradykinin 2 μM, pH 5.5, 15 min room temperature", "how_it_was_run": "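Cathepsin A activated by cathepsin L (15 min, 37 °C, pH 6.0), then preincubated 15 min at room temperature with compound in 25 mM MES pH 5.5, 5 mM DTT. Bodipy FL-bradykinin cleavage ran 15 min at room temperature; substrate and product separated by microfluidic capillary electrophoresis, turnover from peak areas.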", "units": {"IC50": "µM"}, "values": [{"smiles": "Cc1oc(-c2ccccc2)nc1C(=O)N[C@@H](CC(=O)O)c1ccc(F)cc1", "note": "[Example 9, (S)-3-(4-Fluoro-phenyl)-3-[(5-methyl-2-phenyl-oxazole-4-carbonyl)-amino]-propionic acid]", "IC50": 5.57}, {"smiles": "O=C(N[C@@H](Cc1ccc(Cl)cc1)C(=O)O)c1noc(-c2cnccc2C(F)(F)F)n1", "note": "[Example 99, (S)-3-(4-Chloro-phenyl)-2-{[5-(4-trifluoromethyl-pyridin-3-yl)-[1,2,4]oxadiazole-3-carbonyl]-amino}-propionic acid]", "IC50": "> 10"}, {"smiles": "Cc1ccccc1[C@H](CC(=O)O)NC(=O)c1nc(C2CC2)n(-c2ccccc2Cl)n1", "note": "[Example 82, (S)-3-{[1-(2-Chloro-phenyl)-5-cyclopropyl-1H-[1,2,4]triazole-3-carbonyl]-amino}-3-o-tolyl-propionic acid]", "IC50": "> 10"}, {"smiles": "Cc1nc(C(=O)N[C@@H](CC(=O)O)c2ccccc2)nn1-c1ccccc1Cl", "note": "[Example 33, (S)-3-{[1-(2-Chloro-phenyl)-5-methyl-1H-[1,2,4]triazole-3-carbonyl]-amino}-3-phenyl-propionic acid]", "IC50": 1.03}, {"smiles": "Cc1oc(-c2ccccc2)nc1C(=O)NC(CC(=O)O)Cc1ccccc1", "note": "(stereo not drawn) [Example 4, 3-[(5-Methyl-2-phenyl-oxazole-4-carbonyl)-amino]-4-phenyl-butyric acid]", "IC50": 12.9}, {"smiles": "COc1ccc([C@H](CC(=O)O)NC(=O)CCc2nc(-c3ccccc3F)no2)cc1", "note": "[Example 73, (S)-3-{3-[3-(2-Fluoro-phenyl)-[1,2,4]oxadiazol-5-yl]-propionylamino}-3-(4-methoxy-phenyl)-propionic acid]", "IC50": "> 10"}, {"smiles": "O=C(O)C[C@H](NC(=O)c1noc(-c2ccccc2F)n1)c1cccc(C(F)(F)F)c1", "note": "[Example 81, (S)-3-{[5-(2-Fluoro-phenyl)-[1,2,4]oxadiazole-3-carbonyl]-amino}-3-(3-trifluoromethyl-phenyl)-propionic acid]", "IC50": "> 10"}, {"smiles": "O=C(O)C[C@H](NC(=O)c1nc(-c2ccccc2)n(-c2ccccc2)n1)c1cccc(Cl)c1", "note": "[Example 104, (S)-3-(3-Chloro-phenyl)-3-[(1,5-diphenyl-1H-[1,2,4]triazole-3-carbonyl)-amino]-propionic acid]", "IC50": 0.128}, {"smiles": "CCc1nc(C(=O)N[C@@H](CC(=O)O)c2ccccc2C)nn1-c1ccccc1Cl", "note": "[Example 70, (S)-3-{[1-(2-Chloro-phenyl)-5-ethyl-1H-[1,2,4]triazole-3-carbonyl]-amino}-3-o-tolyl-propionic acid]", "IC50": 0.166}, {"smiles": "Cc1ccccc1[C@H](CC(=O)O)NC(=O)c1nc(C)n(-c2ccccc2Cl)n1", "note": "[Example 57, (S)-3-{[1-(2-Chloro-phenyl)-5-methyl-1H-[1,2,4]triazole-3-carbonyl]-amino}-3-o-tolyl-propionic acid]", "IC50": 0.261}, {"smiles": "Cc1ccccc1[C@H](CC(=O)O)NC(=O)c1nn(C)cc1NS(=O)(=O)CC(C)(C)C", "note": "[Example 95, (S)-3-{[4-(2,2-Dimethyl-propane-1-sulfonylamino)-1-methyl-1H-pyrazole-3-carbonyl]-amino}-3-o-tolyl-propionic acid]", "IC50": "> 10"}, {"smiles": "O=C(O)C[C@H](NC(=O)c1noc(-c2cccc(F)c2F)n1)c1ccc(F)cc1", "note": "[Example 44, (S)-3-{[5-(2,3-Difluoro-phenyl)-[1,2,4]oxadiazole-3-carbonyl]-amino}-3-(4-fluoro-phenyl)-propionic acid]", "IC50": 5.33}, {"smiles": "O=C(O)C[C@H](NC(=O)CCc1nc(-c2ccccc2F)no1)c1cccc(C(F)(F)F)c1", "note": "[Example 113, (S)-3-{3-[3-(2-Fluoro-phenyl)-[1,2,4]oxadiazol-5-yl]-propionylamino}-3-(3-trifluoromethyl-phenyl)-propionic acid]", "IC50": "> 10"}, {"smiles": "Cc1ccccc1[C@H](CC(=O)O)NC(=O)c1nc(C(C)C)n(-c2ccccc2Cl)n1", "note": "[Example 87, (S)-3-{[1-(2-Chloro-phenyl)-5-isopropyl-1H-[1,2,4]triazole-3-carbonyl]-amino}-3-o-tolyl-propionic acid]", "IC50": 0.095}, {"smiles": "O=C(O)C[C@H](NC(=O)c1nc(-c2ccccc2)n(-c2ccccc2)n1)c1ccc(Cl)cc1Cl", "note": "[Example 125, (S)-3-(2,4-Dichloro-phenyl)-3-[(1,5-diphenyl-1H-[1,2,4]triazole-3-carbonyl)-amino]-propionic acid]", "IC50": 0.241}, {"smiles": "Cc1ccccc1[C@H](CC(=O)O)NC(=O)c1nc(-c2ccccc2)n(-c2ccccc2)n1", "note": "[Example 84, (S)-3-[(1,5-Diphenyl-1H-[1,2,4]triazole-3-carbonyl)-amino]-3-o-tolyl-propionic acid]", "IC50": 0.0538}, {"smiles": "O=C(O)C[C@H](NC(=O)c1nc(-c2ccccc2)n(-c2ccccc2)n1)c1ccccc1", "note": "[Example 69, (S)-3-[(1,5-Diphenyl-1H-[1,2,4]triazole-3-carbonyl)-amino]-3-phenyl-propionic acid]", "IC50": 0.387}, {"smiles": "Cc1oc(-c2ccccc2F)nc1C(=O)N[C@@H](CC(=O)O)c1ccc(Cl)cc1", "note": "[Example 63, (S)-3-(4-Chloro-phenyl)-3-{[2-(2-fluoro-phenyl)-5-methyl-oxazole-4-carbonyl]-amino}-propionic acid]", "IC50": 3.41}, {"smiles": "COc1cccc([C@H](CC(=O)O)NC(=O)c2nc(-c3ccccc3)oc2C(F)(F)F)c1OC", "note": "[Example 120, (S)-3-(2,3-Dimethoxy-phenyl)-3-[(2-phenyl-5-trifluoromethyl-oxazole-4-carbonyl)-amino]-propionic acid]", "IC50": 8.01}, {"smiles": "O=C(O)C[C@H](NC(=O)c1noc(-c2cccc(F)c2F)n1)c1ccccc1C(F)(F)F", "note": "[Example 101, (S)-3-{[5-(2,3-Difluoro-phenyl)-[1,2,4]oxadiazole-3-carbonyl]-amino}-3-(2-trifluoromethyl-phenyl)-propionic acid]", "IC50": "> 10"}, {"smiles": "O=C(O)C[C@H](NC(=O)c1nc(-c2ccccc2)oc1C(F)(F)F)c1ccccc1Cl", "note": "[Example 97, (S)-3-(2-Chloro-phenyl)-3-[(2-phenyl-5-trifluoromethyl-oxazole-4-carbonyl)-amino]-propionic acid]", "IC50": 7.37}, {"smiles": "Cc1ccc([C@H](CC(=O)O)NC(=O)c2nc(C(C)C)n(-c3ccccc3Cl)n2)cc1", "note": "[Example 85, (S)-3-{[1-(2-Chloro-phenyl)-5-isopropyl-1H-[1,2,4]triazole-3-carbonyl]-amino}-3-p-tolyl-propionic acid]", "IC50": 0.28}, {"smiles": "Cc1oc(-c2ccccc2F)nc1C(=O)N[C@@H](CC(=O)O)c1cccc(C(F)(F)F)c1", "note": "[Example 92, (S)-3-{[2-(2-Fluoro-phenyl)-5-methyl-oxazole-4-carbonyl]-amino}-3-(3-trifluoromethyl-phenyl)-propionic acid]", "IC50": 1.14}, {"smiles": "Cc1ccccc1[C@H](CC(=O)O)NC(=O)c1cc(-c2ccccc2)n(Cc2ccccc2)n1", "note": "[Example 98, (S)-3-[(1-Benzyl-5-phenyl-1H-pyrazole-3-carbonyl)-amino]-3-o-tolyl-propionic acid]", "IC50": 0.075}, {"smiles": "CCCC1CCCCN1C(=O)c1cc(C(=O)N[C@@H](CC(=O)O)c2ccccc2C)nn1CC", "note": "(stereo partly drawn) [Example 114, (S)-3-{[1-Ethyl-5-(2-propyl-piperidine-1-carbonyl)-1H-pyrazole-3-carbonyl]-amino}-3-o-tolyl-propionic acid]", "IC50": 0.81}, {"smiles": "C[C@@](CC(=O)O)(NC(=O)CCc1nc(-c2ccccc2F)no1)c1ccccc1", "note": "[Example 51, (S)-3-{3-[3-(2-Fluoro-phenyl)-[1,2,4]oxadiazol-5-yl]-propionylamino}-3-phenyl-butyric acid]", "IC50": "> 10"}, {"smiles": "Cc1ccccc1[C@H](CC(=O)O)NC(=O)c1noc(-c2ccccc2F)n1", "note": "[Example 15, (S)-3-{[5-(2-Fluoro-phenyl)-[1,2,4]oxadiazole-3-carbonyl]-amino}-3-o-tolyl-propionic acid]", "IC50": 4.92}, {"smiles": "Cc1ccc([C@H](CC(=O)O)NC(=O)c2nc(C)n(-c3ccccc3Cl)n2)cc1", "note": "[Example 55, (S)-3-{[1-(2-Chloro-phenyl)-5-methyl-1H-[1,2,4]triazole-3-carbonyl]-amino}-3-p-tolyl-propionic acid]", "IC50": 0.738}, {"smiles": "Cc1ccccc1[C@H](CC(=O)O)NC(=O)c1cc(S(=O)(=O)N(C)C)oc1C", "note": "[Example 46, (S)-3-[(5-Dimethylsulfamoyl-2-methyl-furan-3-carbonyl)-amino]-3-o-tolyl-propionic acid]", "IC50": "> 10"}, {"smiles": "Cc1ccccc1[C@H](CC(=O)O)NC(=O)c1c[nH]c(-c2ccccc2)n1", "note": "[Example 1, (S)-3-[(2-Phenyl-1H-imidazole-4-carbonyl)-amino]-3-o-tolyl-propionic acid]", "IC50": 0.213}, {"smiles": "Cc1ccccc1[C@H](CC(=O)O)NC(=O)CCc1nc(-c2ccccc2F)no1", "note": "[Example 53, (S)-3-{3-[3-(2-Fluoro-phenyl)-[1,2,4]oxadiazol-5-yl]-propionylamino}-3-o-tolyl-propionic acid]", "IC50": "> 10"}, {"smiles": "O=C(O)C[C@H](NC(=O)c1nc(-c2ccccc2)n(-c2ccccc2)n1)c1ccccc1Cl", "note": "[Example 106, (S)-3-(2-Chloro-phenyl)-3-[(1,5-diphenyl-1H-[1,2,4]triazole-3-carbonyl)-amino]-propionic acid]", "IC50": 0.119}]}, {"system": "platelet aggregation", "test": "not given", "conditions": "hypertensive animals; H. Ostrowska et al., J. Cardiovasc. Pharmacol. 45 (2005); cited from earlier work", "values": [{"smiles": "CC[C@@H](C)[C@@H](O)[C@H](C)C(=O)[C@H](C)/C=C(\\C)C[C@H](C)[C@@H]1OC(=O)[C@H]1CC", "note": "[ebelactone B]", "platelet aggregation": "suppresses platelet aggregation"}]}]}
